Laboratory results taken from patent EP1142584A1, “COMPOSITIONS FOR TREATING FREQUENT URINATION AND URINARY INCONTINENCE” (Takeda Chemical Industries, Ltd., priority 1999, dated 2000).
Structures can show the parent of a compound that is named as a salt. Marks after values point to notes of the source that are not given here.

Tests used:
Assay type in all cases: in vivo
[1] = tested on: rhythmic bladder contractions in urethane-anesthetized guinea pig; test: Rhythmic bladder contractions in urethane-anesthetized guinea pig (Test Example 1); conditions: mean ± standard error, maximum observation period 30 minutes
Description: The urinary frequency and urinary incontinence suppressing activity of NO-711 hydrochloride was evaluated by the ability to increase an interval between rhythmic bladder contractions in urethane-anesthetized guinea pig as an index. In this model, an urethra was ligated, a constant volume of a physiological saline (3 to 4.5 ml) warmed at 39°C was injected into the bladder to distend, and the regular rhythmic bladder contractions at a constant interval were observed. After the stable rhythmic bladder contractions were confirmed, a compound dissolved in physiological saline was administered intravenously to investigate the activity. Immediately after administration of a drug, the time of complete suppression of the rhythmic bladder contractions (rhythmic bladder contraction shutdown time, maximum observation period was 30 minutes) was measured. Table 1 A drug was administered intravenously. *P<0.05, **P<0.01 (significance to the physiological saline-administered control group, nonparametric Dunnett multiple comparison test, two-tailed test)

[2] = tested on: bladder capacity in urethane-anesthetized rats; test: Bladder capacity (cystometry) in urethane-anesthetized rats (Test Example 3); conditions: mean ± standard error
Description: The urinary frequency and urinary incontinence suppressing activity of a GABA uptake inhibitor was shown by the ability to increase bladder capacity in urethane-anesthetized rats. After a bladder was made empty by drawing out the urine, physiological saline warmed at 39°C was injected into the bladder at a constant rate (0.05 ml/min.) to induce micturition. These procedures were repeated to confirm stable bladder capacity (volume of physiological saline injected until start of micturition) and, thereafter, compounds were administered intravenously to investigate the activities. A change in bladder capacity and micturition pressure after the administration was measured. […] Table 3 Tiagabin hydrochloride was dissolved in distilled water, other drugs were dissolved in physiological saline and the drugs were administered intravenously, respectively. Data are shown as the mean ± standard error. After drug administration, animals showing an overflow urinary incontinence-like cystometrogram (urine leakage without the bladder constriction) were excluded from calculation of micturition pressure. *P<0.05, **P<0.01 (significance to the values obtained before drug administration, paired t test, two-tailed test)

[3] = tested on: rhythmic bladder contractions in urethane-anesthetized rats; test: Rhythmic bladder contractions in urethane-anesthetized rats (Test Example 2); conditions: mean ± standard error; for Reflex shutdown time: maximum observation period 30 minutes
Description: The urinary frequency and urinary incontinence suppressing activity of a GABA uptake inhibitor was measured as the ability to abolish the rhythmic bladder contractions in urethane-anesthetized rats as an index. An urethra was ligated, a constant volume of physiological saline warmed at 39°C was injected into the bladder to distend the detrusor muscle, and the regular rhythmic bladder contractions at a constant interval were observed. After the stable bladder contractions were confirmed, a compound was administered intravenously to investigate the activities. A time for completely suppressing the rhythmic bladder contractions after the drug administration (reflex shutdown time, a maximum observation period was 30 minutes) and a maximum contractile intravesical pressure at which the bladder contraction appeared again after the administration was measured. […] Table 2 Tiagabin hydrochloride was dissolved in distilled water, other drugs were dissolved in physiological saline, and the drugs were administered intravenously, respectively. Data are shown as mean ± standard error. *P<0.05, **P<0.01 (significance relative to the vehicle-administered control group, nonparametric Dunnett multiple comparison test, two-tailed test) ^#P<0.05 (significance to the values obtained before drug administration, paired t test, two-tailed test). A maximum contractile pressure was calculated from animals from which the bladder constriction was obtained in an observation period.

[4] = tested on: unilaterally decerebrated rat under consciousness; test: Micturition interval in unilaterally decerebrated rat under consciousness (Test Example 5); conditions: for Micturition interval (min.) After administration / Micturition pressure (mmHg) After administration / Micturition interval (min.) Before administration / Micturition pressure (mmHg) Before administration: mean ± standard error; for Micturition interval (min.) Before administration / Micturition pressure (mmHg) Before administration: 30 minutes before drug
Description: The urinary frequency and urinary incontinence activity of a GABA uptake inhibitor was measured as the ability to increase the micturition interval in a unilaterally decerebrated rat under consciousness as an index. Animals were restricted in a Ballmann cage, and physiological saline was sustained-injected into the bladder at a constant rate (0.05 ml/min.) to induce repeated micturition. In a unilaterally decerebrated rat, micturition interval was decreased, and after the stable micturition interval was confirmed, a drug was administered intravenously or orally to investigate the activity (Table 5 and Table 6). The micturition interval and micturition pressure before and after drug administration were measured for 30 minutes, and the mean values were compared.
A drug was administered intravenously. Cystometogram was continuously measured for 30 minutes starting 15 minutes after drug administration, and it was compared with that for 30 minutes before drug administration. Data are shown as the means ± standard error. *P<0.05 **P<0.01 (significance to before administration, paired t test, two-tailed test) Table 6
A drug was administered orally. A bladder inner pressure curve was continuously measured for 30 minutes starting 60 minutes after drug administration, and it was compared with that for 30 minutes before drug administration. Data are shown as the mean ± standard error. *P<0.05 (significance relative to drug administration, paired t test, two-tailed test)

[5] = tested on: bilateral common carotid artery-ligated rat under consciousness; test: Micturition interval in bilateral common carotid artery-ligated rat under consciousness (Test Example 4); conditions: for Micturition interval (relative to before ligation, %) After administration / Micturition pressure (relative to before ligation, %) After administration: 30 minutes after administration; for Micturition interval (relative to before ligation, %) After administration / Micturition pressure (relative to before ligation, %) After administration / Micturition interval (relative to before ligation, %) Before administration / Micturition pressure (relative to before ligation, %) Before administration: mean ± standard error; for Micturition interval (relative to before ligation, %) Before administration / Micturition pressure (relative to before ligation, %) Before administration: after ligation, before drug
Description: The urinary frequency and urinary incontinence suppressing activity of a GABA uptake inhibitor was measured as the ability to increase the micturition interval in bilateral common carotid artery-ligated rat under consciousness as an index. An animal was restricted in a Ballmann cage, and physiological saline was sustained-injected into the bladder at a constant rate (0.1 ml/min.) to induce repeated micturition. After the stable micturition interval was confirmed, common carotid arteries were ligated bilaterally and micturition interval was decreased. A compound was administered intravenously to animals with micturition interval decreased 20% or more following ligation, and the activity was investigated. The micturition interval and micturition pressure before and after drug administration were measured for 30 minutes, and the averages are expressed as the ratio to the value before bilateral common carotid artery-ligation (Table 4). […]
Tiagabin hydrochloride was dissolved in distilled water and administered intravenously. Crystometograms for 30 minutes before and after drug administration were continuously measured and compared. Data are shown as a ratio to micturition interval and micturition pressure before bilateral common carotid artery-ligation (mean ± standard error). *P<0.05, **P<0.01 (significance relative to before drug administration, paired t test, two-tailed test)

[6] = 0.3 mg/kg intravenously, 30 minutes starting 15 minutes after administration
[7] = 1 mg/kg intravenously, 30 minutes starting 15 minutes after administration
[8] = 3 mg/kg intravenously, 30 minutes starting 15 minutes after administration
[9] = baseline of the 0.3 mg/kg i.v. group
[10] = baseline of the 1 mg/kg i.v. group
[11] = baseline of the 3 mg/kg i.v. group
[12] = baseline of the 0.1 mg/kg i.v. group

## O=C(O)C1=CCCN(CCON=C(c2ccccc2)c2ccccc2)C1 [NO-711 hydrochloride]
[1]; 1 mg/kg intravenously
  Rhythmic bladder contraction shutdown time: 5.9 ± 1.3 min
[1]; 3 mg/kg intravenously
  Rhythmic bladder contraction shutdown time: 18.4±5.0* minutes
[1]; 10 mg/kg intravenously
  Rhythmic bladder contraction shutdown time: 16.9±3.6** minutes
[2]; 0.3 mg/kg intravenously
  Change in bladder capacity (Relative to before administration, %): -8.4±11.3%
  Change in micturition pressure (Relative to before administration, %): -18.1±10.5%
[2]; 1 mg/kg intravenously
  Change in bladder capacity (Relative to before administration, %): 180.9±76.8* %
  Change in micturition pressure (Relative to before administration, %): 16.4±8.2%
[2]; 3 mg/kg intravenously
  Change in bladder capacity (Relative to before administration, %): 188.7±45.3** %
  Change in micturition pressure (Relative to before administration, %): 14.6±18.2%
[3]; 0.3 mg/kg intravenously
  Change in maximum contractile intravesical pressure (Relative to before administration, %): -3.3±3.2%
  Reflex shutdown time: 3.8 ± 1.1 min
[3]; 1 mg/kg intravenously
  Change in maximum contractile intravesical pressure (Relative to before administration, %): -19.7±5.6* %
  Reflex shutdown time: 11.4±2.9** min.
[3]; 3 mg/kg intravenously
  Change in maximum contractile intravesical pressure (Relative to before administration, %): -8.4±5.8%
  Reflex shutdown time: 12.1±2.5** min.

## O=C(O)[C@@H]1CCCN(CCC=C(c2ccccc2)c2ccccc2)C1 [SKF89976A hydrochloride, (R)-1-(4,4-diphenyl-3-butenyl)-3-piperidinecarboxylic acid]
[3]; 3 mg/kg intravenously
  Change in maximum contractile intravesical pressure (Relative to before administration, %): -7.1±3.1%
  Reflex shutdown time: 5.0 ± 1.0 min
[3]; 10 mg/kg intravenously
  Change in maximum contractile intravesical pressure (Relative to before administration, %): -12.1±11.5%
  Reflex shutdown time: 15.7±3.3* min.
[3]; 30 mg/kg intravenously
  Change in maximum contractile intravesical pressure (Relative to before administration, %): -8.4±10.6%
  Reflex shutdown time: 25.1±4.6** min.

## Cc1ccsc1C(=CCCN1CCC[C@@H](C(=O)O)C1)c1sccc1C [Tiagabin hydrochloride, (R)-1-[4,4-bis(3-methyl-2-thienyl)-3-butenyl]-3-piperidinecarboxylic acid]
[2]; 1 mg/kg intravenously
  Change in bladder capacity (Relative to before administration, %): 42.7±35.6%
  Change in micturition pressure (Relative to before administration, %): 15.2±14.6%
[2]; 3 mg/kg intravenously
  Change in bladder capacity (Relative to before administration, %): 236.8±81.2* %
  Change in micturition pressure (Relative to before administration, %): 29.5±15.6%
[2]; 10 mg/kg intravenously
  Change in bladder capacity (Relative to before administration, %): 276.4±29.4** %
  Change in micturition pressure (Relative to before administration, %): 2.5±10.3%
[3]; 0.3 mg/kg intravenously
  Change in maximum contractile intravesical pressure (Relative to before administration, %): -12.6±5.8%
  Reflex shutdown time: 4.7 ± 1.6 min
[3]; 1 mg/kg intravenously
  Change in maximum contractile intravesical pressure (Relative to before administration, %): 4.5±17.3%
  Reflex shutdown time: 11.6 ± 3.8 min
[3]; 3 mg/kg intravenously
  Change in maximum contractile intravesical pressure (Relative to before administration, %): -19.4±11.8%
  Reflex shutdown time: 18.0±3.5* min.
[3]; 10 mg/kg intravenously
  Change in maximum contractile intravesical pressure (Relative to before administration, %): -31.6±10.5%
  Reflex shutdown time: 24.6±3.1** min.
[4]; [6]
  Micturition interval (min.) After administration: 6.8 ± 0.9 min
  Micturition pressure (mmHg) After administration: 15.1±2.6 mmHg
[4]; [7]
  Micturition interval (min.) After administration: 6.5±1.0* min.
  Micturition pressure (mmHg) After administration: 14.5±1.5 mmHg
[4]; [8]
  Micturition interval (min.) After administration: 7.3±0.5** min.
  Micturition pressure (mmHg) After administration: 16.5±1.6 mmHg
[4]; 3 mg/kg orally, 30 minutes starting 60 minutes after administration
  Micturition interval (min.) After administration: 5.6 ± 0.7 min
[4]; 10 mg/kg orally, 30 minutes starting 60 minutes after administration
  Micturition interval (min.) After administration: 6.1±0.8* min.
[4]; [9]
  Micturition interval (min.) Before administration: 6.6 ± 1.5 min
  Micturition pressure (mmHg) Before administration: 13.9±2.3 mmHg
[4]; [10]
  Micturition interval (min.) Before administration: 5.2 ± 0.7 min
  Micturition pressure (mmHg) Before administration: 14.4±1.4 mmHg
[4]; [11]
  Micturition interval (min.) Before administration: 5.1 ± 0.5 min
  Micturition pressure (mmHg) Before administration: 16.1±1.4 mmHg
[4]; baseline of the 3 mg/kg oral group
  Micturition interval (min.) Before administration: 4.9 ± 0.8 min
[4]; baseline of the 10 mg/kg oral group
  Micturition interval (min.) Before administration: 4.4 ± 0.5 min
[4]; both intravenous and oral administrations, summary of Table 5 and Table 6
  micturition interval (result in words): increased micturition interval
[5]; 0.1 mg/kg intravenously
  Micturition interval (relative to before ligation, %) After administration: 78.8±10.0%
  Micturition pressure (relative to before ligation, %) After administration: 100.7±2.3%
[5]; 0.3 mg/kg intravenously
  Micturition interval (relative to before ligation, %) After administration: 92.1±12.8* %
  Micturition pressure (relative to before ligation, %) After administration: 86.3±9.2%
[5]; 1 mg/kg intravenously
  Micturition interval (relative to before ligation, %) After administration: 100.0±6.5** %
  Micturition pressure (relative to before ligation, %) After administration: 105.0±8.4%
[5]; 3 mg/kg intravenously
  Micturition interval (relative to before ligation, %) After administration: 75.5±15.0* %
  Micturition pressure (relative to before ligation, %) After administration: 106.2 ± 5.3%
[5]; [12]
  Micturition interval (relative to before ligation, %) Before administration: 58.5±3.1%
  Micturition pressure (relative to before ligation, %) Before administration: 103.9±1.1%
[5]; [9]
  Micturition interval (relative to before ligation, %) Before administration: 62.5±4.9%
  Micturition pressure (relative to before ligation, %) Before administration: 91.3±10.6%
[5]; [10]
  Micturition interval (relative to before ligation, %) Before administration: 63.2±3.3%
  Micturition pressure (relative to before ligation, %) Before administration: 111.5±8.3%
[5]; [11]
  Micturition interval (relative to before ligation, %) Before administration: 46.5±11.6%
  Micturition pressure (relative to before ligation, %) Before administration: 105.2±10.8%
[5]; intravenously, interval decreased by bilateral common carotid artery ligation, summary of Table 4
  micturition interval (result in words): showed an increasing effect on micturition interval
